Test results reported in patent US9518976B2, “Methods for identifying or assaying for agents that increase beta-cell proliferation, insulin secretion, insulin sensitivity, glucose tolerance and decrease fat mass” (The Trustees of Columbia University in The City of New York, priority 2006, dated 2016).
One block for each molecule: values may come before it. Ends that are not written are not given here.

Assays:
[1] = tested on: Wild type adipocytes; assay: Adiponectin expression in wt adipocytes treated with osteocalcin (real time PCR); assay type: cell-based, mouse
From the text: (§1) FIG. 7. Esp−/− Mice Are a Model of Increased Osteocalcin Bioactivity. (A-G) Comparison between 6-week-old WT, Esp−/, Ocn+/−, and Esp−/−; Ocn+/− mice. (A) Blood glucose levels. (B) Serum insulin levels. (C) Serum adiponectin levels. (D) GTT. (E) ITT. (F) GSIS test. (G) Quantification of the number of Ki67-immunoreactive cells in pancreatic islets. […] (J) Expression of Adiponectin in WT adipocytes cocultured with osteoblasts treated with warfarin or vehicle. (K) Expression of Adiponectin in WT adipocytes cultured in presence of vehicle or of 1 ng/ml of commercially available carboxylated osteocalcin (Immunotopics) or bacterially produced uncarboxylated osteocalcin. (L) Expression of Insulin and Cyclin D1 in WT islets cultured in presence of 0.3 ng/ml of bacterially produced uncarboxylated osteocalcin or vehicle. (M) Metabolic parameters and total serum osteocalcin levels in control and obese patients. (N-O) Quantification of carboxylated osteocalcin (HA-bound osteocalcin) in control and obese patients. In (A)-(C) and (G)-(L): *p<0.05 versus WT (Student's t test); in (D)-(F), °p<0.05 versus WT and *p % 0.001 versus WT (ANOVA followed by post hoc analysis).
FIG. 15. […] Wt adipocytes were treated for 4 hours with recombinant full-length osteocalcin (1-46) or a truncated form (1-36) or vehicle. Adiponectin expression was then quantified by real time PCR.
Primary adipocytes were isolated from epididymal fat pads by collagenase digestion. Briefly, minced adipose tissue was digested by 1 mg/ml collagenase P in KRP Buffer (20 mM HEPES, 120 mM NaCl, 6 mM KCl, 1.2 mM MgSO4, 1 mM CaCl2, 0.6 mM Na2HPO4, 0.4 mM NaH2PO4, 2.5 mM D-glucose, 2% BSA, pH 7.4) for 1 h at 37° C. The isolated cells were washed twice with KRP Buffer before being cultured in αMEM/1% FBS at 37° C. in 5% CO2.
(§2) All gene expression analyses were performed using real time PCR. DNAse I-treated total RNA was converted to cDNA with the SuperScript III kit (Invitrogen). Real-time PCR were performed using the Taq SYBR Green Supermix with ROX (Biorad) on an MX3000 instrument (Stratagene); beta-actin amplification was used as an internal reference for each sample. All primers were from SuperArray.
Experiments were performed to test whether truncated osteocalcin was as effective as full-length uncarboxylated osteocalcin in stimulating adiponectin secretion from mouse adipocytes in vitro. Wild type adipocytes were treated for 4 hours with recombinant full-length osteocalcin (1-46) or a truncated form (1-36) (having a deletion of the […] ten amino acids from the C-terminal end) or vehicle. Adiponectin expression was then quantified by real time PCR. […]

[2] = tested on: osteoblasts; assay: Osteocalcin/hydroxyapatite (HA) binding assay on medium of warfarin-treated osteoblasts; assay type: cell-based, mouse
Procedure: Primary osteoblasts were prepared from calvaria of 5 day-old pups as previously described (Ducy et al., 2000a) and were cultured in αMEM/10% FBS in the presence of 100 μg/ml ascorbic acid and 5 mM β-glycerophosphate for 5 days. Skin fibroblasts were isolated by collagenase digestion (0.5 mg/ml) and were cultured in […]MEM/10% FBS. Twenty-four hours before addition of primary islets (or adipocytes), osteoblasts (or fibroblasts) were placed in αMEM/1% FBS. […] After 4 h of co-culture, either in the presence or absence of (1 μm) culture inserts (Falcon) islets (or adipocytes) were collected for RNA isolation using TRIZOL (Invitrogen).
Sera from 1 month-old mice, obese patients or supernatant from warfarin-treated osteoblast cultures were added to HA slurry to achieve a final concentration of 25 mg slurry/ml. After 15 min (mouse sera, supernatant) or 30 min (human sera), HA beads were pelleted by centrifugation and HA-bound osteocalcin was eluted with 0.5M sodium phosphate buffer, pH 8.0. Osteocalcin present in eluates and initial samples was measured by IRMA. Values represent percentage of HA-bound osteocalcin over initial osteocalcin content. Hauschka, P. V., et al., Physiol Review 69, 990-1047 (1989).
To determine whether this was the case, two additional experiments were performed. […] Second, carboxylated osteocalcin and bacterially produced mouse osteocalcin, which is not carboxylated, were used in cell-based assays. […] Lastly, we studied human obese patients that are hyperinsulinemic but not diabetic (FIG. 7M).

[3] = tested on: WT adipocytes; assay: Adiponectin expression in WT adipocytes cocultured with warfarin-treated osteoblasts; assay type: cell-based, mouse; settings: adipocytes cocultured with warfarin-treated vs vehicle-treated osteoblasts (FIG. 7J)
From the text: as §1
Primary osteoblasts were prepared from calvaria of 5 day-old pups as previously described (Ducy et al., 2000a) and were cultured in αMEM/10% FBS in the presence of 100 μg/ml ascorbic acid and 5 mM β-glycerophosphate for 5 days. […]

[4] = tested on: beta-cells; assay: Streptozotocin (STZ) injection in WT and Esp−/− mice: survival and blood glucose; assay type: in vivo, mouse; settings: eight days after injection
From the text: FIG. 3. Esp−/− Mice Are Protected from Obesity and Glucose Intolerance. A-F) Food intake per day (A), body weight curve (B), fat pad mass (C), serum triglyceride levels (D), GTT (E), and ITT (F) in 4-month-old WT and Esp−/− mice 3 months after GTG or vehicle injection. (G-I) Body weight curve (G), GTT (H), and ITT (I) in 3 month-old WT and Esp−/− mice fed a high fat diet for 6 weeks. (J and K) Serum insulin levels (J) and pancreatic insulin content (K) in 1-month-old WT and Esp−/− mice 8 days after STZ or vehicle injection. (L and M) Survival of mice (L) and change of blood glucose levels (M) in 1-month-old WT and Esp−/− mice during the 8 days following STZ injection. (N) Urinary glucose assays in 1-month-old WT and Esp−/− mice 8 days after STZ injection. In (A)-(F), (J), and (K): a, WT versus Esp−/−; b, WT+GTG (or STZ) versus WT+vehicle; c, WT+GTG (or STZ) versus Esp−/−+GTG (or STZ); d, Esp−/−+GTG (or STZ) versus Esp−/−+vehicle. In (G)-(I) and (M), *p<0.05 WT versus Esp−/−. In (A), (C), (D), (J), and (K), Student's t test, p<0.05 for a-d; in (B), (E)-(I), (L), and (M), ANOVA followed by post hoc analysis when number of groups >2, p % 0.001 for a-d.
For glucose tolerance test (GTT), glucose (2 g/kg body weight (BW)) was injected intraperitoneally (IP) after an overnight fast and blood glucose was monitored using blood glucose strips and the Accu-Check glucometer (Roche) at indicated times. For glucose stimulated insulin secretion test (GSIS), glucose (3 g/kg BW) was injected IP after an overnight fast; sera were collected from tails and insulin measured as described (Mauvais-Jarvis et al., 2000). For insulin tolerance test (ITT), mice were fasted for six hours, injected IP with insulin (0.2 U/kg BW) and blood glucose levels were measured at indicated times as described (Mauvais-Jarvis et al., 2002). ITT data are presented as percentage of initial blood glucose concentration. Gold thioglucose (600 mg/kg BW, USP) was injected IP after an overnight fast, mice were sacrificed 3 months later for analysis. Streptozotocin ([…] single injection, Sigma) was injected IP and blood glucose measured as described above every 2 days thereafter. After 8 days, pancreases were isolated to measure insulin content as previously described (Mauvais-Jarvis et al., 2000). Food intake was measured using metabolic cages as the daily change of food weight. Energy expenditure was measured using metabolic cages connected to a calorimeter (Columbus Instrument). Heat values (Kcal/Hr) were recorded over 2 days and reported to each mouse BW.
Whether the increase in insulin sensitivity could protect Esp−/− mice from pancreatic beta-cell failure was determined. […] Unlike STZ-treated WT mice, glucose could not be detected in urine of STZ-injected Esp−/− mice (FIG. 3N).

[5] = target: T1, gamma carboxylase (Homo sapiens, UniProt P38435); settings: thiol-specific inhibitors; cited from earlier work
T1 sequence (P38435 1-758): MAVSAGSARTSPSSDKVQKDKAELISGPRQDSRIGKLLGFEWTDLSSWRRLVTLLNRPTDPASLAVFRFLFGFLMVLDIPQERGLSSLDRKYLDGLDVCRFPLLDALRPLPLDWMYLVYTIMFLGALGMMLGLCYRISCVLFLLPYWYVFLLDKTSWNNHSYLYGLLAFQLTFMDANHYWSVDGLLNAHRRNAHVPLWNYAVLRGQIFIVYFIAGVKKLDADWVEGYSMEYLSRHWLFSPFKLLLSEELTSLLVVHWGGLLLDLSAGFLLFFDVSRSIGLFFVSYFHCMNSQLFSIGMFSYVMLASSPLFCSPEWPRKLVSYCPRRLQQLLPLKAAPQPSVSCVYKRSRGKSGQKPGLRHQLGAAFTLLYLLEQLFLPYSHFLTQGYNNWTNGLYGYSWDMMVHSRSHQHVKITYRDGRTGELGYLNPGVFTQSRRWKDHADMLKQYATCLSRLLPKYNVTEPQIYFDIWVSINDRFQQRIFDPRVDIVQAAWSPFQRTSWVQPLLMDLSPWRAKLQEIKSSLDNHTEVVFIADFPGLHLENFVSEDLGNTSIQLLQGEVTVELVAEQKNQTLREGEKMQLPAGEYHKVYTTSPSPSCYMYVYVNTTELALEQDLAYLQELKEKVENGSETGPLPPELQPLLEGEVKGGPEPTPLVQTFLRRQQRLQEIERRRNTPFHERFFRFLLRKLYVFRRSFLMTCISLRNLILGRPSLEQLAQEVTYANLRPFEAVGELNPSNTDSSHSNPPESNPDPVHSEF

[6] = osteoporotic patients, cited from earlier work
[7] = tested on: wild type osteoblasts; assay: Isoproterenol on wild type osteoblasts: mRNA levels by quantitative PCR; assay type: cell-based, mouse
Procedure: as §2
It was discovered that sympathetic nervous system (SNS) activity positively regulates Esp expression in osteoblasts. […] Thus, decreasing sympathetic activity should lead to a decrease in Esp expression and thereby to an increase in the undercarboxylated, active form of osteocalcin.

[8] = read-out: Kd to hydroxyapatite; cited from earlier work

Molecule: carboxylated osteocalcin: commercially available carboxylated osteocalcin (Immunotopics) (YLYQWLGAPVPYPDPLEPRREVCELNPDCDELADHIGFQEAYRRFYGPV; ends and bridges not checked; also: carboxylated (Gla) residues, sites not given here; UniProt P02818 52-100, looked up) [reference compound]
- induction of adiponectin expression ([1]; WT adipocytes, 1 ng/ml (FIG. 7K)): failed to induce

- percentage of osteocalcin bound to HA ([2]; conditioned medium of warfarin-treated osteoblasts vs vehicle, 50 μM, 48 h, 15 min HA incubation): marked decrease
- levels of undercarboxylated osteocalcin produced by osteoblasts ([2]; warfarin-treated vs vehicle-treated osteoblasts (FIG. 7I)): elevated
Molecule: CC(=O)CC(c1ccccc1)c1c(O)c2ccccc2oc1=O (stereo not drawn) [warfarin]
- osteocalcin secreted by osteoblasts ([2]; warfarin-treated osteoblasts (vehicle 10 ng/ml)): 2 ng/mL
- adiponectin expression induced by treated osteoblasts [3]: significantly higher extent

Molecule: CN(N=O)C(=O)N[C@H]1C(O)O[C@H](CO)[C@@H](O)[C@@H]1O (mixture of isomers) [STZ, streptozotocin]
- blood glucose level of surviving mice ([4]; STZ-treated Esp−/− mice): ≤ 250 mg/dL
- mice died ([4]; STZ-treated Esp−/− mice): one
- mice died ([4]; STZ-treated WT mice): 3 of the 7
- serum glucose levels of surviving mice ([4]; STZ-treated WT mice): above 500 mg/dl

Molecule: CCN1C(=O)C=CC1=O [N-ethylmaleimide (NEM), N-ethylmaleimide]
- inhibition of gamma carboxylase [5]: inhibited

Molecule: Vitamin K
- percentage mean decrease in undercarboxylated osteocalcin ([6]; four weeks of treatment, vs controls without Vitamin K): 85%

Molecule: 1-36 fragment of uncarboxylated osteocalcin: Recombinant truncated mouse osteocalcin (1-36), ten amino acids deleted from the C-terminal end (YLGASVPSPDPLEPTREQCELNPACDELSDQYGLKT; not fully specified; ends and bridges not checked; UniProt P86546 50-85, looked up, fragment)
- Adiponectin expression increase ([1]; wild type adipocytes treated for 4 hours, real time PCR, vs vehicle): ~1.8 fold
- potency in inducing adiponectin expression in vitro ([1]; wt adipocytes, 4 hours (FIG. 15 legend)): as potent as native osteocalcin

- expression of gamma-carboxylase (ggcx) [7]: did not increase
Molecule: CC(C)NCC(O)c1ccc(O)c(O)c1 (stereo not drawn) [isoproterenol]
- expression of osteocalcin [7]: did not increase
- expression of vkor [7]: did not increase
- increase of Esp expression ([7]; at 8 hours): remains steady
- increase of Esp expression ([7]; by 4 hours): about 80%

Molecule: O=C([O-])c1cc[c]([Hg][OH])cc1 [p-hydroxymurcuribenzoate (pHMB), p-hydroxymurcuribenzoate]
- inhibition of gamma carboxylase [5]: inhibited

Molecule: Vitamin D
- effect on undercarboxylated osteocalcin ([6]; alone or together with Vitamin K): no significant effect

B1: Osteocalcin: normal (Gla-containing) osteocalcin, small vitamin K-dependent calcium binding protein; literature data (protein, listed as Homo sapiens)
chain: MRALTLLALLALAALCIAGQAGAKPSGAESSKGAAFVSKQEGSEVVKRPRRYLYQWLGAPVPYPDPLEPRREVCELNPDCDELADHIGFQEAYRRFYGPV
- Kd [8]: ~100 nM
